Tests used:
[1] = tested on: mtDNA harboring the m.3243A>G mutation; assay: Heteroplasmy by Haelll digestion of mtDNA fragment, DW7 cells; format: cell-based, human; conditions: 10 μM, 144 h
Method: FIGS. 7A-7E: MNRR1 activation by tizoxanide enhances mtDNA biogenesis and mitophagy to shift heteroplasmy in MELAS cells. FIG. 7A: Oxygen consumption measured from MELAS cybrid cells treated with vehicle (DMSO) or tizoxanide (10 μM) for 48 h (n=4 biological replicates, error bars represent SE). FIG. 7B: Haelll restriction enzyme digestion of a PCR-amplified fragment of mtDNA harboring the m.3243A>G mutation from DW7 cells treated with vehicle (DMSO) or tizoxanide (10 μM) for 144 h. […] FIG. 7C: Genes identified using qPCR of MELAS cybrid cells stably overexpressing EV or MNRR1. FIG. 7D: MtDNA levels are shown relative to nuclear DNA (nDNA) (GAPDH) (n=5 biological replicates, error bars represent SE). FIG. 7E: Equal amounts of MELAS cybrid cell lysates, treated with vehicle (DMSO) or tizoxanide (10 μM) for 48 h, were separated on an SDS-PAGE gel and probed for PGC1a, PINK1, LC3 A/B, MNRR1, and Tubulin. FIG. 7F: Equal numbers of MELAS cells were treated as in FIG. 7E, separated on an SDS-PAGE gel, and probed for phospho-ubiquitin (S65) levels. Tubulin was probed as a loading control. In all figures, * indicates p<0.05, ** indicates p<0.005.
Restriction Enzyme Digestion: DNA was analyzed for the MELAS mutation as described previously. […]

[2] = tested on: intra-amniotic LPS-induced preterm labor and birth; assay: Murine model of intra-amniotic LPS-induced preterm labor and birth; format: in vivo, mouse
Method: FIGS. 2A-2F. Nitazoxanide prevents preterm delivery and improves neonatal mortality in vivo. (FIG. 2A) Schematic illustration depicting the administration of nitazoxanide (marketed under the commercial name Alinia) and LPS in the murine model of preterm birth. (FIG. 2B) Gestational length of mice was obtained using video-monitoring until delivery (n=6-8 animals). (FIG. 2C) Neonatal mortality was determined by calculating the number of dead pups over total litter size (n=6-8 animals). […] No pups from LPS-injected dams survived beyond week 0 of birth. (FIG. 2E) MNRR1 transcript levels were measured in mouse decidual tissue (17.5 dpc). Actin was used as a housekeeping gene to normalize expression (n=4 animals for all except PBS+N, where n=3). (FIG. 2F) Equal amounts of whole placental lysates were separated on an SDS-PAGE gel and probed for MNRR1 levels. Actin was used as a loading control. Gel is representative of data obtained from 2 animals. Keyfor FIGS. 2B, 2C, and 2E: PBS, phosphate buffered saline injection; LPS, lipopolysaccharide injection; PBS+N, PBS injection with oral gavage of nitazoxanide; LPS+N, LPS injection with oral gavage of nitazoxanide. Significance: *, p<0.05; **, p<0.01.
Animal model of intra-amniotic LPS-induced preterm labor and birth: Nitazoxanide (Alinia®; ROMARK, Tampa, FL, USA) was dissolved in sterile injectable water. The nitazoxanide volume was mouse weight dependent (100 μL of nitazoxanide solution at 200 mg/kg was administered for every mouse weight of 10 g). […] Dams were anesthetized on 16.5 dpc by inhalation of 2-3% (Fluriso™ (Isoflurane, USP), Vetone Boise, ID, USA) and 1-2 L/min of oxygen in an induction chamber. Anesthesia was maintained with a mixture of 1.5-2% isoflurane and 1.5-2 L/min of oxygen. Dams were positioned on a heating pad and stabilized with adhesive tape. Fur removal from the abdomen and thorax was performed by applying Nair cream (Church & Dwight Co., Inc., Ewing, NJ, USA) to those areas. Body temperature was detected with a rectal probe (VisualSonics Inc., Toronto, Ontario, Canada) and maintained in the range of 37±1° C. Respiratory and heart rates were monitored by electrodes embedded in the heating pad. An ultrasound probe was fixed and mobilized with a mechanical holder, and the transducer was slowly moved toward the abdomen. […] Following injection, dams were monitored by using a video camera with infrared light (Sony) until delivery. Video monitoring allowed for determination of gestational length, which was calculated from the presence of the vaginal plug (0.5 dpc) until the observation of the first pup in the cage bedding. […] The rates of neonatal mortality at birth were calculated as the number of pups found dead among the total litter size. […]

[3] = 200 mg/kg oral gavage, intra-amniotic LPS 16.5 dpc

Compound | increase in proportion of WT mtDNA [1] | neonatal mortality at birth ([2]; 200 mg/kg oral gavage, LPS-injected dams, compared to controls) | LPS-induced preterm birth (delivery <18.5 dpc) [2, 3] | gestational age [2, 3] | neonates surviving up to 3 weeks ([2]; neonates born to LPS-injected dams treated with nitazoxanide)
O=C(Nc1ncc([N+](=O)[O-])s1)c1ccccc1O [tizoxanide, Tizoxanide] | about 14% | – | – | – | –
CC(=O)Oc1ccccc1C(=O)Nc1ncc([N+](=O)[O-])s1 [nitazoxanide, Nitazoxanide] | – | significantly reduced | preventing LPS-induced preterm birth (delivery <18.5 days post coitum (dpc)) in all pregnant dams | extended | almost one-half

Source: patent publication US20250241901A1, “ACTIVATION OF MNRR1 / CHCHD2 AS A THERAPEUTIC TARGET FOR MITOCHONDRIA ASSOCIATED DISORDERS” (Wayne State University, priority 2024, published 2025)
